Data published in PMC12485664, “Interaction of class III cellobiose dehydrogenase with lytic polysaccharide monooxygenase” (FEBS Open Bio, 2025).

How the values were obtained:
[1] = system: T1, FsCDH (class III cellobiose dehydrogenase); experiment: DCIP reduction, plate reader, Michaelis-Menten fit; format: biochemical, Fusarium solani; conditions: 0.3 mM DCIP, 50 mM potassium phosphate pH 6.0
T1 construct: gene CDH; flavocytochrome with cytochrome and dehydrogenase domains; recombinant secreted in Komagataella phaffii, FPLC purified
Source text: DCIP reduction, plate reader, Michaelis-Menten fit on FsCDH (class III cellobiose dehydrogenase)

NcAA9C (NcLPMO9C) = biological target: T2, NcAA9C (NcLPMO9C) (Neurospora crassa, UniProt Q7SHI8); experiment: batch conversion, RDE H2O2 consumption, HPAEC-PAD and MALDI-TOF-MS of products; format: biochemical; conditions: H2O2 cosubstrate, 5 mM ascorbic acid, 30 mM sodium acetate pH 5.0, 100 mM KCl
T2 construct: gene gh61-3; recombinant secreted in Komagataella phaffii, FPLC purified; copper enzyme, C4-acting
T2 sequence (Q7SHI8 17-359): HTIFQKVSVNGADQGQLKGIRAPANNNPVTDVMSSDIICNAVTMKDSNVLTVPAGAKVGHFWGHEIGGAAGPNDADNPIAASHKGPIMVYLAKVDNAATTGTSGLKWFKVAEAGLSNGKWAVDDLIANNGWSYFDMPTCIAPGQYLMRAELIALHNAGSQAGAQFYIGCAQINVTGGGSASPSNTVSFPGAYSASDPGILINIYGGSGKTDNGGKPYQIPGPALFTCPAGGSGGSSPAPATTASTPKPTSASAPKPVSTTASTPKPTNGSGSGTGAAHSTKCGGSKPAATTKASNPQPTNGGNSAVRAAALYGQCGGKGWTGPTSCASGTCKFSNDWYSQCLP

Row | SMILES | Km [1] [µM] | also measured
1 | OC[C@H]1OC(O)[C@H](O)[C@@H](O)[C@@H]1O[C@@H]1O[C@H](CO)C(O)(O)[C@H](O)[C@H]1O (stereo partly shown) [Glc4gemGlc] |  | Km ([1]; sample not treated with β-glucosidase, 1 to 100 μM): 30.6 ± 8.3 µM
2 | OC[C@H]1O[C@@H](O[C@H]2[C@H](O)[C@@H](O)[C@H](O[C@H]3[C@H](O)[C@@H](O)[C@H](O[C@H]4[C@H](O)[C@@H](O)[C@H](O[C@H]5[C@H](O)[C@@H](O)C(O)O[C@@H]5CO)O[C@@H]4CO)O[C@@H]3CO)O[C@@H]2CO)[C@H](O)[C@@H](O)[C@@H]1O (stereo partly shown) [cellopentaose] |  | batch conversion, RDE H2O2 consumption, HPAEC-PAD and MALDI-TOF-MS of products (NcAA9C (NcLPMO9C)): a batch reaction employing NcAA9C, H2O2 as cosubstrate
3 | OC[C@H]1O[C@@H](O[C@H]2[C@H](O)[C@@H](O)C(O)O[C@@H]2CO)[C@H](O)[C@@H](O)[C@@H]1O (stereo partly shown) [cellobiose] | 21.4 ± 3 | 
4 | OC[C@H]1O[C@@H](O[C@H]2[C@H](O)[C@@H](O)[C@H](O[C@H]3[C@H](O)[C@@H](O)C(O)O[C@@H]3CO)O[C@@H]2CO)[C@H](O)[C@@H](O)[C@@H]1O (stereo partly shown) [cellotriose] | 16.1 ± 2.9 | 
